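Five concentrations, 48 hours, 96-well plates. GI50 = concentration required for 50% inhibition of growth.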 The source made the active and inactive calls. No stated cut-off is given here; in the data, active = GI50 up to about 1.1 µM and inactive = higher.
Assays:
Test in all cases: NCI-60 cell line screen, 48 h
UO-31 = system: UO-31
XF498 = system: XF498
KM12 = system: KM12
NCI-H23 = system: NCI-H23
NCI-H460 = system: NCI-H460
DMS-273 = system: DMS-273
SN12C = system: SN12C
HCC 2998 = system: HCC 2998
EKVX = system: EKVX
SK-MEL-5 = system: SK-MEL-5
OVCAR-3 = system: OVCAR-3
HOP-18 = system: HOP-18
LOX IMVI = system: LOX IMVI
OVCAR-8 = system: OVCAR-8
SK-MEL-28 = system: SK-MEL-28
KM-20L2 = system: KM-20L2
HOP-92 = system: HOP-92
UACC-257 = system: UACC-257
K562 = system: K562
ACHN = system: ACHN

Compound | GI50 (UO-31) | GI50 (XF498) | GI50 (KM12) | GI50 (NCI-H23) | GI50 (NCI-H460) | GI50 (DMS-273) | GI50 (SN12C) | GI50 (HCC 2998) | GI50 (EKVX) | GI50 (SK-MEL-5) | GI50 (OVCAR-3) | GI50 (HOP-18) | GI50 (LOX IMVI) | GI50 (OVCAR-8) | GI50 (SK-MEL-28) | GI50 (KM-20L2) | GI50 (HOP-92) | GI50 (UACC-257) | GI50 (K562) | GI50 (ACHN)
CC(=O)OC1C=C(C=O)C(O)(C=O)C2(C)CCCC(C)(C)C12 (configuration not stated) | 2.32 µM (inactive) | 1.49 µM (inactive) | 2.31 µM (inactive) | 1.44 µM (inactive) | 1.64 µM (inactive) | 2.08 µM (inactive) | 2.52 µM (inactive) | 2.61 µM (inactive) | 2.65 µM (inactive) | 1.17 µM (inactive) | 0.693 µM (active) | 0.931 µM (active) | 0.942 µM (active) | 1.24 µM (inactive) | 1.05 µM (active) | 2.11 µM (inactive) | 1.05 µM (active) | 2 µM (inactive) | 0.809 µM (active) | –
CC(C)=CCc1c(O)ccc2ccc(=O)oc12 [OSTHENOL] | 29.4 µM (inactive) | – | > 75.5 µM (inactive) | 55.5 µM (inactive) | > 73.5 µM (inactive) | 63.7 µM (inactive) | > 91.8 µM (inactive) | 45.8 µM (inactive) | 51.6 µM (inactive) | 15.3 µM (inactive) | 60.1 µM (inactive) | 43.6 µM (inactive) | 51.5 µM (inactive) | 53 µM (inactive) | 49.4 µM (inactive) | > 100 µM (inactive) | 38.4 µM (inactive) | 33 µM (inactive) | 37.6 µM (inactive) | –
COC(=O)[C@@H](O)[C@](O)(CCC(C)C)C(=O)O[C@@H]1C(OC)=C[C@]23CCCN2CCc2cc4c(cc2[C@H]13)OCO4 | 1.5 µM (inactive) | – | 1.26 µM (inactive) | 1.55 µM (inactive) | 0.325 µM (active) | 0.585 µM (active) | 2.36 µM (inactive) | 0.233 µM (active) | 1.71 µM (inactive) | 1.48 µM (inactive) | 1.24 µM (inactive) | 2.46 µM (inactive) | 0.562 µM (active) | 1.88 µM (inactive) | 0.518 µM (active) | 1.5 µM (inactive) | 1.05 µM (active) | 1.82 µM (inactive) | 0.659 µM (active) | –
COc1ccc(C2C(=O)C(Cl)N2Nc2nc(C)cc(O)n2)cc1OC (configuration not stated) | 29.9 µM (inactive) | – | 39.6 µM (inactive) | 25.3 µM (inactive) | 26.8 µM (inactive) | 22.1 µM (inactive) | 21.7 µM (inactive) | 42.6 µM (inactive) | 56.8 µM (inactive) | 29.3 µM (inactive) | 10.2 µM (inactive) | 6.41 µM (inactive) | 18.1 µM (inactive) | 26.3 µM (inactive) | 43.3 µM (inactive) | 37 µM (inactive) | 25.5 µM (inactive) | 40.6 µM (inactive) | 22 µM (inactive) | 19.4 µM (inactive)
CCCOC(=O)CNC(=O)OC(C)(C)C | > 100 µM (inactive) | > 100 µM (inactive) | > 100 µM (inactive) | > 100 µM (inactive) | > 100 µM (inactive) | > 100 µM (inactive) | – | > 100 µM (inactive) | > 100 µM (inactive) | > 100 µM (inactive) | > 100 µM (inactive) | 0.897 µM (active) | > 100 µM (inactive) | > 100 µM (inactive) | > 100 µM (inactive) | > 100 µM (inactive) | > 100 µM (inactive) | > 100 µM (inactive) | > 100 µM (inactive) | > 100 µM (inactive)
CCCCCCCCC1=CCC(CN(C)C)C1=O (configuration not stated) | 17 µM (inactive) | – | 15.1 µM (inactive) | 19.9 µM (inactive) | 16.3 µM (inactive) | 18.7 µM (inactive) | 17.1 µM (inactive) | 14 µM (inactive) | 23.6 µM (inactive) | 20.1 µM (inactive) | 18.3 µM (inactive) | – | 16.6 µM (inactive) | 17.9 µM (inactive) | 20.1 µM (inactive) | 21.9 µM (inactive) | 16.9 µM (inactive) | 20.9 µM (inactive) | 9.82 µM (inactive) | –
NC(=O)C(=O)N/N=C1/c2ccccc2CC1C1(O)C(=O)Nc2c(Cl)cc(Cl)cc21 (configuration not stated) | > 100 µM (inactive) | > 100 µM (inactive) | > 100 µM (inactive) | > 100 µM (inactive) | > 100 µM (inactive) | > 100 µM (inactive) | > 100 µM (inactive) | > 100 µM (inactive) | > 100 µM (inactive) | > 100 µM (inactive) | > 100 µM (inactive) | > 100 µM (inactive) | 88.3 µM (inactive) | > 100 µM (inactive) | > 100 µM (inactive) | > 100 µM (inactive) | > 100 µM (inactive) | > 100 µM (inactive) | 88.7 µM (inactive) | > 100 µM (inactive)
Cc1cc2cccc(Cl)c2nc1C(=O)c1ccccc1 | > 100 µM (inactive) | 82 µM (inactive) | > 100 µM (inactive) | > 100 µM (inactive) | – | > 100 µM (inactive) | > 100 µM (inactive) | > 100 µM (inactive) | – | > 100 µM (inactive) | > 100 µM (inactive) | 18.7 µM (inactive) | 94.4 µM (inactive) | 46.3 µM (inactive) | > 100 µM (inactive) | > 100 µM (inactive) | – | 18.2 µM (inactive) | > 100 µM (inactive) | > 100 µM (inactive)
Cn1ncc2c(=O)[nH]c(-c3ccccc3)nc21 | > 100 µM (inactive) | > 100 µM (inactive) | > 100 µM (inactive) | > 100 µM (inactive) | – | > 100 µM (inactive) | > 100 µM (inactive) | > 100 µM (inactive) | > 100 µM (inactive) | > 100 µM (inactive) | – | < 0.01 µM (active) | > 100 µM (inactive) | > 100 µM (inactive) | > 100 µM (inactive) | > 100 µM (inactive) | – | > 100 µM (inactive) | > 100 µM (inactive) | > 100 µM (inactive)
CCOC(=O)C1C(c2cc(OC)c(O)c(OC)c2)c2cc3c(cc2OC1(C)O)OCO3 (configuration not stated) | 41.8 µM (inactive) | 31 µM (inactive) | – | 66.5 µM (inactive) | 48.2 µM (inactive) | 36.9 µM (inactive) | 88.5 µM (inactive) | – | > 100 µM (inactive) | 36 µM (inactive) | 65.3 µM (inactive) | > 100 µM (inactive) | 93.1 µM (inactive) | > 100 µM (inactive) | 60.7 µM (inactive) | 64.9 µM (inactive) | 11.5 µM (inactive) | 61.9 µM (inactive) | > 100 µM (inactive) | 55.2 µM (inactive)
CC(C)C1=CC2=CC[C@@H]3[C@](C)(CCC[C@@]3(C)C(=O)O)[C@H]2CC1 [ABIETIC ACID] | 43.7 µM (inactive) | 73.6 µM (inactive) | 37.8 µM (inactive) | 45.3 µM (inactive) | 47 µM (inactive) | 48.1 µM (inactive) | 62.4 µM (inactive) | > 80 µM (inactive) | 42.6 µM (inactive) | 60.5 µM (inactive) | 35.7 µM (inactive) | > 75 µM (inactive) | 58.6 µM (inactive) | > 56.9 µM (inactive) | > 59.3 µM (inactive) | 63.2 µM (inactive) | 37.2 µM (inactive) | 56.1 µM (inactive) | > 53 µM (inactive) | 53.8 µM (inactive)
